Experimental data published in publication PMC6393422, “Novel Chitohexaose Analog Protects Young and Aged mice from CLP Induced Polymicrobial Sepsis” (Scientific Reports, 2019).

Biological target: TLR4 (toll-like receptor 4) (Homo sapiens, UniProt O00206)
Assay: TLR4 ELISA on lysates of human PBMCs treated with AVR-25 for […] h, dose response
Assay type: cell-based

Chain of TLR4 (toll-like receptor 4) (O00206 24-839): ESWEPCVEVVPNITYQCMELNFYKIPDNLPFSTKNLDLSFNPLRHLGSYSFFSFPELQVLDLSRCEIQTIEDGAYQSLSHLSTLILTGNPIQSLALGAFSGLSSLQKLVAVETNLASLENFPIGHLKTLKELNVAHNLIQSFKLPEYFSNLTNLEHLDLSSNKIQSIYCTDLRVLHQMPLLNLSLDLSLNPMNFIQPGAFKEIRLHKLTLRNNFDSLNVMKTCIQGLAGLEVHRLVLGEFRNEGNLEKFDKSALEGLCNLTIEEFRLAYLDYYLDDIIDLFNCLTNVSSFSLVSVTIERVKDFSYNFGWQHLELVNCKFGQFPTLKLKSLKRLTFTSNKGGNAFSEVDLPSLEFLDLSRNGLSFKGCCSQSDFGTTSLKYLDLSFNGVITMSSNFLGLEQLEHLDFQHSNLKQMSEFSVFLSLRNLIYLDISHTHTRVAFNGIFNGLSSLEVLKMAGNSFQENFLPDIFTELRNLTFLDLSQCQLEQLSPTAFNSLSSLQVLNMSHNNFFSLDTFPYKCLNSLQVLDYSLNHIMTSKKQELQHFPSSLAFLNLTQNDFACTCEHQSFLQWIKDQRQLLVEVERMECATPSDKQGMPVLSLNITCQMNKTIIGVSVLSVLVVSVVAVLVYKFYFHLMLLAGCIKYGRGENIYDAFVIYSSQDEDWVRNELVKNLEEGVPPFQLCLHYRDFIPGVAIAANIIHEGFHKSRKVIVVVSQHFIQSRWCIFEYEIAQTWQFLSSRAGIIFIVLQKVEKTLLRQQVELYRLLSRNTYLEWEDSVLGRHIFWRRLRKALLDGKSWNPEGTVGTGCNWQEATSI

- IC50: 0.15 µM
SMILES: CC(=O)N[C@H]1[C@H](OC2CCCCC2)O[C@H](CO)[C@@H](O[C@@H]2O[C@H](CO)[C@@H](O)[C@H](O)[C@H]2NC(C)=O)[C@@H]1O [AVR-25, N-((2R,3R,4R,5S,6R)-5-(((2S,3R,4R,5S,6R)-3-acetamido-4,5-dihydroxy-6-(hydroxymethyl)tetrahydro-2H-pyran-2-yl)oxy)-2-(cyclohexyloxy)-4-hydroxy-6-(hydroxymethyl)tetrahydro-2H-pyran-3-yl)acetamide]
